In patent US4916219A, “Oligosaccharide heparin fragments as inhibitors of complement cascade” (University of Iowa Research Foundation, priority 1988, dated 1990):
Each block holds one molecule with its values, some of them ahead of it.

What was measured:
[1] = tested on: T1, factor IIa (Homo sapiens); experiment: Antithrombin III mediated anti-factor IIa activity, purified plasma proteins; type: biochemical; conditions: standard curve using heparin (Mr avg 14,000), 167 units/mg
T1 construct: anti-factor IIa; from tissue
T1 sequence (P01008 33-464): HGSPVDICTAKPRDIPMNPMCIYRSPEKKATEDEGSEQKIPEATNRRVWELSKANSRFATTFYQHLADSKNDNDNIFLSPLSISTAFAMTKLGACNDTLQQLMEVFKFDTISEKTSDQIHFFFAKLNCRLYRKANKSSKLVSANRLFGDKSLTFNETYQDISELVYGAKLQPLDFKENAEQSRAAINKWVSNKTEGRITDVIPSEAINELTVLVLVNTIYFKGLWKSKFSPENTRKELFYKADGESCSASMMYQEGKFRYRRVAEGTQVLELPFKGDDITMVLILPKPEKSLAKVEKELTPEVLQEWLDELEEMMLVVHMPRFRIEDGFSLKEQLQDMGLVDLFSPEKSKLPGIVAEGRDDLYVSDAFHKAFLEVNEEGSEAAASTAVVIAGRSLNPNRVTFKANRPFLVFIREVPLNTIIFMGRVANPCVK
Protocol: (§1) This example illustrates the anticoagulant activity of each heparin and heparin-oligosaccharide fragment. Anticoagulant activity was determined by aPTT (activated thromboplastin time) (Linhardt et al., J. Biol. Chem. 257: 7310-13, 1982). Antithrombin III-mediated anti-factor IIa and antifactor Xa activity was measured using purified plasma proteins as described in Linhardt et al. and in Table 2. […] Two bovine heparins had 106% and 124% of standard porcine heparin's activity and the low molecular weight heparin had 100% of standard porcine heparin's activity on complement activation.
(§2) The anticoagulant activity of heparin-oligosaccharides and commercial heparins measured by antifactor IIa assays are plotted against their ability to inhibit complement activation in FIG. 5. The porcine heparins, bovine heparins, and low molecular heparins cluster, showing only minor differences in activities.

[2] = molecular target: T2, alternative-amplification pathway C3 convertase on EAC4b,3b (Homo sapiens, UniProt P00751+P01024); experiment: Inhibition of generation of alternative-amplification pathway C3 convertase (lysis of EAC4b,3b); type: biochemical, sheep erythrocyte
T2 construct: C3bBb(P) formation read by lysis with rat serum-EDTA
T2 sequence (P01024 23-1663): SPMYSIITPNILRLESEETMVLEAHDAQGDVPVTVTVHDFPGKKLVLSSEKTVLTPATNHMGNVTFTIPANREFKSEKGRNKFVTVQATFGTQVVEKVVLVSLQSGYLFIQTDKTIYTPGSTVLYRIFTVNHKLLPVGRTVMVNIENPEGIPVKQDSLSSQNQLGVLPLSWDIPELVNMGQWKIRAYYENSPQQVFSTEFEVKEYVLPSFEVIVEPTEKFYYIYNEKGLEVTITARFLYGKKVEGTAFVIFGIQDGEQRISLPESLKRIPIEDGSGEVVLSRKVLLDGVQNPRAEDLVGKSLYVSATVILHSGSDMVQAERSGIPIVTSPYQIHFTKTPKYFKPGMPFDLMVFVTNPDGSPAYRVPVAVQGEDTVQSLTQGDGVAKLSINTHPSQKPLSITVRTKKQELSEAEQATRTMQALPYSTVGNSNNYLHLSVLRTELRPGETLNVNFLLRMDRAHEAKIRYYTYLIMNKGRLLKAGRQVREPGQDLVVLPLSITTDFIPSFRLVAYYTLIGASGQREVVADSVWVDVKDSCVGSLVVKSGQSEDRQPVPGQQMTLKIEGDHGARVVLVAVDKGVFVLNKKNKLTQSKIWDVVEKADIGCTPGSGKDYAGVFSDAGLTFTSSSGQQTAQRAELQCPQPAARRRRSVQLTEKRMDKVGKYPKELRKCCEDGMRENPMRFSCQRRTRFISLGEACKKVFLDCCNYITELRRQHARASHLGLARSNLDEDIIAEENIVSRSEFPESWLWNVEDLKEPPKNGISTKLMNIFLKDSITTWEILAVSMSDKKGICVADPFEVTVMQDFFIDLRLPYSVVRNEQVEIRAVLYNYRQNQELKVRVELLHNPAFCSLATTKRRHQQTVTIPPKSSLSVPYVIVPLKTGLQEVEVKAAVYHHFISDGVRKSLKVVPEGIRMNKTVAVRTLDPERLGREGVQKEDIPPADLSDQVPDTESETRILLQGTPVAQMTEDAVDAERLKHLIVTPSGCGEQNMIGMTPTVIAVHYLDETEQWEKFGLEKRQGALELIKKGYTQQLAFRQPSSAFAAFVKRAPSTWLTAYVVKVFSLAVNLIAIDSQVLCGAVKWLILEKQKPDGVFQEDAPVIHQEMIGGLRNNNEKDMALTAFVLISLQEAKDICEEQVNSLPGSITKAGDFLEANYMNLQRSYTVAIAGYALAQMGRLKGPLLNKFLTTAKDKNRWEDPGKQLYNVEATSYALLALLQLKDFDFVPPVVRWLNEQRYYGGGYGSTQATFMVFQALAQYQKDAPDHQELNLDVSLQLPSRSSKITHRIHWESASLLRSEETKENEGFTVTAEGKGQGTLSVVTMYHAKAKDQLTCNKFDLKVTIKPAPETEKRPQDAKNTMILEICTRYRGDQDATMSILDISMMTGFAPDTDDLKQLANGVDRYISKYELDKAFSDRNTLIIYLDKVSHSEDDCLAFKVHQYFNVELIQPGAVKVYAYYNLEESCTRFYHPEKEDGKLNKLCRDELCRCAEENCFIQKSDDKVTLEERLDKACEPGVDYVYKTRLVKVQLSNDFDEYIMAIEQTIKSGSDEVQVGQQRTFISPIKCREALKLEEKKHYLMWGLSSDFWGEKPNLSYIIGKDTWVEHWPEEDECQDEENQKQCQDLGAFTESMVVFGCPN
T2 sequence (P00751 26-764): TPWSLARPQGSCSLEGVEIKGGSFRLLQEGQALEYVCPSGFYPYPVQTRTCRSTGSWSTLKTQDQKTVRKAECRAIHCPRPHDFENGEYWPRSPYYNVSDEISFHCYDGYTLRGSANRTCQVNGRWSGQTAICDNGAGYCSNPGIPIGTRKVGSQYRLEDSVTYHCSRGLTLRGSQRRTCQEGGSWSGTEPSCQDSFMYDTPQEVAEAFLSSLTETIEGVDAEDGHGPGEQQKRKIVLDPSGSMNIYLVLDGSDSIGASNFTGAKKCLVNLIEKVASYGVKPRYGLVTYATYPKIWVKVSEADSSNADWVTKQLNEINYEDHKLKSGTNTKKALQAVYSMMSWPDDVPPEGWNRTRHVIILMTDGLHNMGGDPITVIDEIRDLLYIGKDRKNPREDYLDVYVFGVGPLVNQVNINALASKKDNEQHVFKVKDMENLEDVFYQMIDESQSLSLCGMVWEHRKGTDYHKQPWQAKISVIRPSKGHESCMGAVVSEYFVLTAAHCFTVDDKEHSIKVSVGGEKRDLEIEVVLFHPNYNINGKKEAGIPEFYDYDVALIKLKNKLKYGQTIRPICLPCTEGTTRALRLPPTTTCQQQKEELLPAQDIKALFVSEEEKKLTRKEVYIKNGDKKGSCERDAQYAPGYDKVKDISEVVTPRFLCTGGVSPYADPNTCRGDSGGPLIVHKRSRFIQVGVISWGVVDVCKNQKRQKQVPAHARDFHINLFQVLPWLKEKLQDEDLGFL
T2 sequence (P27918 28-469 partner): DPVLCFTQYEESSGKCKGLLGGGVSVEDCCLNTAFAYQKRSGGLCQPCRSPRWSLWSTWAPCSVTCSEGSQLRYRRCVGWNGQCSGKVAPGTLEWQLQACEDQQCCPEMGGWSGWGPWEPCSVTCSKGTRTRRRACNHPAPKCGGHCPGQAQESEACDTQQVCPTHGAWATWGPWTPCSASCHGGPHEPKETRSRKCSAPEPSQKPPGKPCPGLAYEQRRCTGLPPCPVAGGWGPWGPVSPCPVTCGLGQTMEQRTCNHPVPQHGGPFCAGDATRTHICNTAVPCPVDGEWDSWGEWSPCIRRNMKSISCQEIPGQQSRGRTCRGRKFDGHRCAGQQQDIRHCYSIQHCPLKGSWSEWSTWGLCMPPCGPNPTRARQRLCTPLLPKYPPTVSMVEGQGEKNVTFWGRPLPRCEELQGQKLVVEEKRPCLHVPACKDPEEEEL
T2 sequence (P00746 26-253 partner): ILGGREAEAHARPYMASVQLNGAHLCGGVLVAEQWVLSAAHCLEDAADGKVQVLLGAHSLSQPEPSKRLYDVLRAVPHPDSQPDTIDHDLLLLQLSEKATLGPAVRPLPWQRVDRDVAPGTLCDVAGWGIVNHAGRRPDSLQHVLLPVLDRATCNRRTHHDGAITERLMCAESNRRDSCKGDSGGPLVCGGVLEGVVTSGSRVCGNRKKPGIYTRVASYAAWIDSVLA
Protocol: This example illustrates the activity of heparin and heparin-oligosaccharides to inhibit generation of the alternative-amplification pathway C3 convertase. The method described in Weiler et al., J. Exp. Med. 147: 409-421, 1978; Weiler, Immunopharmacology 6: 245-255, 1983; and Sharath et al., Immunopharmacology 9: 73-83, 1985, was used. Briefly, inhibition was examined in experiments that used EAC4b,3b which were prepared to have high, intermediate, and low amounts of C3 on the cell surface. EAC4b,3b^100, EAC4b,3b^20, and EAC4b,3b^5 were produced using a C3 input of 100 μg, 20 μg, and 5 μg per 10^9 EAC4b,2a cellular intermediates, respectively. Complement assay buffer (DGVB^++) 100 μL, alone was added to tubes used for the reagent blank, no inhibition, and 100% lysis; or complement assay buffer containing a heparin or heparin-oligosaccharide solution was added to the remaining tubes. At time zero, 100 μl of complement assay buffer containing a suspension of 1×10^7 EAC4b,3b, an excess amount of P and D (100 ng P), and an amount of B needed to lyse the noninhibited tubes at an average of 1 hemolytic event per cell (0.03 ng B for EAC4b,3b^100, 0.15 ng B for EAC4b,3b^20, and 0.50 ng B for EAC4b,3b^5) was added to each tube. The tubes used for the reagent blank contained no B. The mixtures were incubated for 30 minutes at 30° C. with shaking. Then, 300 μL of a 1:20 dilution of rat serum in 40 mM EDTA was added to each tube and incubation was continued with shaking for 60 minutes at 37° C. Saline (1.5 mL) was then added to each tube, except the 100% tube which was lysed with 1.5 mL of water in place of the saline. Finally, the contents of the tubes were mixed, centrifuged and the absorbance of the supernatant was measured at 414 nm.
The percent lysis, the average number of hemolytic sites per cell (Z), and the percent inhibition were then calculated. Data are expressed as either percent inhibition or as 100 times the ED50 (the amount of heparin resulting in 50% inhibition) for heparin divided by the ED50 for heparin-oligosaccharide. Concentration of heparin and heparin-oligosaccharides are expressed as micrograms per 1×10^7 cellular intermediates. The volume of the reaction tubes during convertase generation varied between 0.2 mL and 0.3 mL; the number of cellular intermediates was held at 1×10^7 per tube. The amount of lysis (Z) seen in the nonhibited tube was relatively independent of the volume of buffer present in the tube during convertase generation. Similarly, the amount of inhibition of convertase generation was independent of the volume of buffer present in the tube during convertase generation.

factor Xa = experiment: Antithrombin III mediated anti-factor Xa activity, purified plasma proteins; type: biochemical; conditions: standard curve using heparin (Mr avg 14,000), 167 units/mg
Protocol: as §1

[3] = tested on: aPTT (activated thromboplastin time); experiment: Anticoagulant activity by aPTT; type: biochemical; conditions: standard curve using heparin (Mr avg 14,000), 167 units/mg
Protocol: as §1, §2

SMILES: CC(=O)NC1C(OC2C(C(=O)O)OC(OC3C(COS(=O)(=O)O)OC(O)C(NS(=O)(=O)O)C3OS(=O)(=O)O)C(O)C2O)OC(COS(=O)(=O)O)C(OC2OC(C(=O)O)C(OC3OC(COS(=O)(=O)O)C(OC4OC(C(=O)O)=CC(O)C4OS(=O)(=O)O)C(O)C3NS(=O)(=O)O)C(O)C2O)C1O [6C, ΔUAp2S(1→4)-α-D-GlcNp2S6S(1→4)-α-L-IdoAp(1→4)-α-D-GlcNAcp6S-(1→4)-β-D-GlcAp( 1→4)-α-D-GlcNp2S3S6S]
Anticoagulant ACTIVITY Antithrombin III mediated Anti-factor IIa [1]: 11 units/μmole
Complement activation inhibitory activity [2]: low activity
Anticoagulant ACTIVITY Antithrombin III mediated Anti-factor Xa (factor Xa): 26 units/μmole
Anticoagulant ACTIVITY aPTT [3]: 26 units/μmole

SMILES: O=C(O)C1=C[C@H](O)[C@@H](OS(=O)(=O)O)[C@H](O[C@H]2[C@H](O)[C@@H](NS(=O)(=O)O)[C@@H](O[C@H]3[C@H](O)[C@@H](OS(=O)(=O)O)[C@H](O[C@H]4[C@H](O)[C@@H](NS(=O)(=O)O)C(O)O[C@@H]4COS(=O)(=O)O)O[C@H]3C(=O)O)O[C@@H]2CO)O1 (stereo partly drawn) [4A, ΔUAp2S(1→4)-α-D-GlcNp2S(1→4)-α-L-IdoAp2S-α-D-GlcNp2S6S]
Anticoagulant ACTIVITY Antithrombin III mediated Anti-factor IIa [1]: < 1 units/μmole
Complement activation inhibitory activity [2]: low activity
Anticoagulant ACTIVITY Antithrombin III mediated Anti-factor Xa (factor Xa): < 0.1 units/μmole
Anticoagulant ACTIVITY aPTT [3]: 2 units/μmole

SMILES: O=C(O)C1=C[C@H](O)[C@@H](OS(=O)(=O)O)[C@H](O[C@H]2[C@H](O)[C@@H](NS(=O)(=O)O)[C@@H](O[C@H]3[C@H](O)[C@@H](OS(=O)(=O)O)[C@H](O[C@H]4[C@H](O)[C@@H](NS(=O)(=O)O)C(O)O[C@@H]4COS(=O)(=O)O)O[C@H]3C(=O)O)O[C@@H]2COS(=O)(=O)O)O1 (stereo partly drawn) [4C, ΔUAp2S(1→4)-α-D-GlcNp2S6S(1→4)-α-L-IdoAp2S(1→4)-α-D-GlcNp2S6S]
Anticoagulant ACTIVITY Antithrombin III mediated Anti-factor IIa [1]: < 2 units/μmole
Complement activation inhibitory activity [2]: low activity
Anticoagulant ACTIVITY Antithrombin III mediated Anti-factor Xa (factor Xa): 3 units/μmole
Anticoagulant ACTIVITY aPTT [3]: 2 units/μmole

SMILES: O=C(O)C1=C[C@H](O)[C@@H](OS(=O)(=O)O)[C@H](O[C@H]2[C@H](O)[C@@H](NS(=O)(=O)O)[C@@H](O[C@H]3[C@H](O)[C@@H](O)[C@H](O[C@H]4[C@H](O)[C@@H](NS(=O)(=O)O)C(O)O[C@@H]4COS(=O)(=O)O)O[C@@H]3C(=O)O)O[C@@H]2COS(=O)(=O)O)O1 (stereo partly drawn) [4B, ΔUAp2S(1→4)-α-D-GlcNp2S6S(1→4)-β-D-GlcAp(1→4)-α-D-GlcNp2S6S]
Anticoagulant ACTIVITY Antithrombin III mediated Anti-factor IIa [1]: < 2 units/μmole
Complement activation inhibitory activity [2]: low activity
Anticoagulant ACTIVITY Antithrombin III mediated Anti-factor Xa (factor Xa): 0.1 units/μmole
Anticoagulant ACTIVITY aPTT [3]: 2 units/μmole

More lines, main results first:

Anticoagulant ACTIVITY Antithrombin III mediated Anti-factor IIa [1]: < 3 units/μmole
SMILES: O=C(O)C1=CC(O)C(OS(=O)(=O)O)C(OC2C(COS(=O)(=O)O)OC(OC3C(C(=O)O)OC(OC4C(COS(=O)(=O)O)OC(OC5C(C(=O)O)OC(OC6C(COS(=O)(=O)O)OC(OC7C(C(=O)O)OC(OC8C(COS(=O)(=O)O)OC(OC9C(C(=O)O)OC(OC%10C(COS(=O)(=O)O)OC(O)C(NS(=O)(=O)O)C%10O)C(OS(=O)(=O)O)C9O)C(NS(=O)(=O)O)C8O)C(OS(=O)(=O)O)C7O)C(NS(=O)(=O)O)C6O)C(OS(=O)(=O)O)C5O)C(NS(=O)(=O)O)C4O)C(OS(=O)(=O)O)C3O)C(NS(=O)(=O)O)C2O)O1 (centres unmarked) [10D]
Anticoagulant ACTIVITY Antithrombin III mediated Anti-factor Xa (factor Xa): 136 units/μmole
Anticoagulant ACTIVITY aPTT [3]: 54 units/μmole

Anticoagulant ACTIVITY Antithrombin III mediated Anti-factor IIa [1]: < 2 units/μmole
SMILES: O=C(O)C1=CC(O)C(OS(=O)(=O)O)C(OC2C(COS(=O)(=O)O)OC(OC3C(C(=O)O)OC(OC4C(COS(=O)(=O)O)OC(OC5C(C(=O)O)OC(OC6C(COS(=O)(=O)O)OC(O)C(NS(=O)(=O)O)C6O)C(OS(=O)(=O)O)C5O)C(NS(=O)(=O)O)C4O)C(OS(=O)(=O)O)C3O)C(NS(=O)(=O)O)C2O)O1 (centres unmarked) [6D]
Anticoagulant ACTIVITY Antithrombin III mediated Anti-factor Xa (factor Xa): 4 units/μmole
Anticoagulant ACTIVITY aPTT [3]: 11 units/μmole

Anticoagulant ACTIVITY Antithrombin III mediated Anti-factor IIa [1]: < 3 units/μmole
SMILES: O=C(O)C1=CC(O)C(OS(=O)(=O)O)C(OC2C(COS(=O)(=O)O)OC(OC3C(C(=O)O)OC(OC4C(COS(=O)(=O)O)OC(OC5C(C(=O)O)OC(OC6C(COS(=O)(=O)O)OC(OC7C(C(=O)O)OC(OC8C(COS(=O)(=O)O)OC(O)C(NS(=O)(=O)O)C8O)C(OS(=O)(=O)O)C7O)C(NS(=O)(=O)O)C6O)C(OS(=O)(=O)O)C5O)C(NS(=O)(=O)O)C4O)C(OS(=O)(=O)O)C3O)C(NS(=O)(=O)O)C2O)O1 (centres unmarked) [8D]
Anticoagulant ACTIVITY Antithrombin III mediated Anti-factor Xa (factor Xa): 32 units/μmole
Anticoagulant ACTIVITY aPTT [3]: 22 units/μmole

Anticoagulant ACTIVITY Antithrombin III mediated Anti-factor IIa [1]: < 1 units/μmole
Complement activation inhibitory activity [2]: low activity
SMILES: O=C(O)C1=C[C@H](O)[C@@H](OS(=O)(=O)O)[C@H](O[C@H]2[C@H](O)[C@@H](NS(=O)(=O)O)C(O)O[C@@H]2COS(=O)(=O)O)O1 (stereo partly drawn) [compound 2, ΔUAp2S(1→4)-α-D-GlcNp2S6S]
Anticoagulant ACTIVITY Antithrombin III mediated Anti-factor Xa (factor Xa): < 0.1 units/μmole
Anticoagulant ACTIVITY aPTT [3]: < 1 units/μmole
